Tests used:
[1] = target: wild type PRC2 (wtPRC2) complex (Homo sapiens (Human), UniProt O75530); test: EED LC-MS assay; format: biochemical; settings: EED LC-MS Qualified assay; read-out: (b) IC50
Procedure: EED LC-MS Assay Representative compounds of the present invention were serially and separately diluted 3-fold in DMSO to obtain a total of eight or twelve concentrations. […] A 6 μL solution of 3 μM of the peptide substrate H3K27Me0 (histone H3[21-44]-biotin) in reaction buffer was added to initiate each reaction. […] The data were then fit to a dose response equation using the program Helios to get the IC50 values of the test compound.

[2] = target: EED (1-441)-His protein (Homo sapiens (Human), UniProt O75530); test: EED-H3K27Me3 peptide competition binding assay by AlphaScreen; settings: EED Alphascreen binding Qualified assay
EED (1-441)-His protein, sequence (O75530 whole entry): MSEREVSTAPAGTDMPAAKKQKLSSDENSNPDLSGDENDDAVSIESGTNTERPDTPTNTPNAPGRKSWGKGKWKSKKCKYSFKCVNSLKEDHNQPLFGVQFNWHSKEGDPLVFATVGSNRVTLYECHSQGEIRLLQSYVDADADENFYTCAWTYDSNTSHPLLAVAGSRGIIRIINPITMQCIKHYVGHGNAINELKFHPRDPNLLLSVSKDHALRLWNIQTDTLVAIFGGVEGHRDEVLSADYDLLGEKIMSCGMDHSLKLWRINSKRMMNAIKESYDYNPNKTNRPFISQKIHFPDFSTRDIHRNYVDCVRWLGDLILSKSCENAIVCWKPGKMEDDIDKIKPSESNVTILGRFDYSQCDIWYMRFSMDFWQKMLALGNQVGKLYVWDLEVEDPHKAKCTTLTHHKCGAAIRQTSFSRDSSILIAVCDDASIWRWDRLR
Procedure: Then 4 μL of detection beads mix was added to the plate and incubate in the dark at the rt for 1 h. The final concentration of donor and acceptor beads was 10 μg/mL for each. […] The data were then fit to a dose response equation using the program Helios (Novartis) to get the IC50 values. […] Sebaugh, J. […] Each compound was counter screened to determine if it interfered with the AlphaScreen beads. […] The plates were then incubated for 1 h at rt in dark before being read on EnVison.

[3] = system: H3K27 methylation in G401 cell; test: ELISA (H3K27 methylation) assay; format: cell-based; settings: Homo sapiens, G-401, ELISA Qualified assay, 48 h, read-out: (c) IC50
Procedure: ELISA (H3K27 Methylation) Assay
Representative compounds of the present invention were serially and separately diluted 3-fold in DMSO to obtain a total of eight or twelve concentrations. Then the compounds were added to G401 cell cultured in 384-well plate at 1:500 dilution to obtain the highest concentration of 20 μM. The cells were further cultured for 48 h before ELISA procedure.
ELISA protocol: Cell lysates were transferred to the wells of a 384-well plate and the final volume was adjusted to 50 μL per well with PBS. The plate was sealed, centrifuged at 2,000 rpm for 2 min and incubated at 4° C. for about 16 h. The plate was washed with TBST buffer (1×TBS (10×TBS: 24.2 g Tris (Sigma, T6066), 80 g NaCl (Sigma, S3014) to 1 L of water and adjust pH to 7.6 with HCl) with 0.1% Tween-20). Blocking buffer (TBST, 5% BSA; 50 μL per well) was added and the plate was incubated for 1 h at rt. The blocking buffer was removed and primary antibody was added (30 μL per well). […] The primary antibody was incubated in the plate at rt for 1 h. The wells were washed with TBST and incubated with secondary antibody for 1 h at rt. […] After 1 h of incubation at rt, the wells were washed with TBST. […] The signal was read using a PerkinElmer Envision Reader. The H3K27 methylation readouts were normalized using H3 signal and then percentage inhibition was calculated against the samples treated with DMSO. The data were then fit to a dose response curve using the program Helios to get the IC50 values of the test compound.

wild type PRC2 (wtPRC2) complex, sequence (O75530 whole entry): as above
wild type PRC2 (wtPRC2) complex, sequence (Q15910 whole entry partner): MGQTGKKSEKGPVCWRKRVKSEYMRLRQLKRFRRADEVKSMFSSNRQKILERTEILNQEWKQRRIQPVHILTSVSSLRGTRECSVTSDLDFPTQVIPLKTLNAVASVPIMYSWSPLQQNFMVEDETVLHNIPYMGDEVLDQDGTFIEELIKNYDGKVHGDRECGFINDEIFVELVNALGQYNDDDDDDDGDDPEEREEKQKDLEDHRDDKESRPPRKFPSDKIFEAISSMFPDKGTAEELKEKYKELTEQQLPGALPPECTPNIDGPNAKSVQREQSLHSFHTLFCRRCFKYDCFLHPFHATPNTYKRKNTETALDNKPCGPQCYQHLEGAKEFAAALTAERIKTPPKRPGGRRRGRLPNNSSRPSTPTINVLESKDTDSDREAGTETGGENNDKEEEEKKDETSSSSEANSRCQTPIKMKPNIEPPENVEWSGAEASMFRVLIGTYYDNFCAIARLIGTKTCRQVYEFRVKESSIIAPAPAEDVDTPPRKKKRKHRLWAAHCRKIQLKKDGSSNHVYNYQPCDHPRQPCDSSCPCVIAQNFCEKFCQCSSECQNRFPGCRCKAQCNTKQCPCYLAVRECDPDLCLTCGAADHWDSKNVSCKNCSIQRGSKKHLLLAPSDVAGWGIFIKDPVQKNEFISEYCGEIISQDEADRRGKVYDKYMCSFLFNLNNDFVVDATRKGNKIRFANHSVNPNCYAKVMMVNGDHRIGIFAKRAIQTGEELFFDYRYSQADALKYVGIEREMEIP
wild type PRC2 (wtPRC2) complex, sequence (Q15022 whole entry partner): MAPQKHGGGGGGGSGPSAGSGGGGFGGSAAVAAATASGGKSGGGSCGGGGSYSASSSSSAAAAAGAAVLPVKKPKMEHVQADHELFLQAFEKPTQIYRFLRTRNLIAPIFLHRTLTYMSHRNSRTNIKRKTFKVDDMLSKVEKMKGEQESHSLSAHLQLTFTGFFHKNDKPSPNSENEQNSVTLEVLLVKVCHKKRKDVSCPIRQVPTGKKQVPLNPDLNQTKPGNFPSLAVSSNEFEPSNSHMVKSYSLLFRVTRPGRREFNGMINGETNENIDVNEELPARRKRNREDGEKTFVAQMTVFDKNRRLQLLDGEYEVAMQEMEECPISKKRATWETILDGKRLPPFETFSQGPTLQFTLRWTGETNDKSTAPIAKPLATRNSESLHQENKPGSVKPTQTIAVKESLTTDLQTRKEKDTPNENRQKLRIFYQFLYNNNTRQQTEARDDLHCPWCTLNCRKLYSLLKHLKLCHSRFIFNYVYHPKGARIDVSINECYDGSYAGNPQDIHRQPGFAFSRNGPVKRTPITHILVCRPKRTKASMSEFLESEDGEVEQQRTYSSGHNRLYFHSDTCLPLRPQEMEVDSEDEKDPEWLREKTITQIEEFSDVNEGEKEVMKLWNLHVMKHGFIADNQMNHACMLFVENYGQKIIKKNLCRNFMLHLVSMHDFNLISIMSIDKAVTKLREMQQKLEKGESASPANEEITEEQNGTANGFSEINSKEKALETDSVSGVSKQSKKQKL

| IC50 [1] | IC50 [2] | IC50 [3] | SMILES |
| --- | --- | --- | --- |
| 11.3 nM | 15.3 nM | 52.1 nM | Fc1ccc2c(c1CNc1ncc(-c3ccc(C(F)F)nc3)c3cncn13)CCO2 [Example 60, 8-(6-(difluoromethyl)pyridin-3-yl)-N-((5-fluoro-2,3-dihydrobenzofuran-4-yl)methyl)imidazo[1,5-c]pyrimidin-5-amine] |
| 44.7 nM | 18.1 nM | 18.8 nM | N#Cc1ncn2c(NCc3c(F)ccc4c3CCO4)ncc(-n3ccnc3)c12 [Example 119, 5-(((5-fluoro-2,3-dihydrobenzofuran-4-yl)methyl)amino)-8-(1H-imidazol-1-yl)imidazo[1,5-c]pyrimidine-1-carbonitrile] |
| 26.7 nM | 9.5 nM | 61.8 nM | Cc1nc(C(=O)N(C)C)ccc1-c1cnc(NCc2c(F)ccc3c2CCO3)n2cncc12 [Example 63, 5-(5-(((5-fluoro-2,3-dihydrobenzofuran-4-yl)methyl)amino)imidazo[1,5-c]pyrimidin-8-yl)-N,N,6-trimethylpicolinamide] |
| 19.1 nM | 8.3 nM | 22.5 nM | Cc1nc(OC(C)C)ncc1-c1cnc(NCc2c(F)ccc3c2CCO3)n2cncc12 [Example 61, N-((5-fluoro-2,3-dihydrobenzofuran-4-yl)methyl)-8-(2-isopropoxy-4-methylpyrimidin-5-yl)imidazo[1,5-c]pyrimidin-5-amine] |
| 17.6 nM | 4.5 nM | 2.5 nM | N#Cc1ncn2c(NCc3c(F)ccc4c3CCO4)ncc(-c3ccc(N4CCNCC4)nc3)c12 [Example 86, 5-(((5-fluoro-2,3-dihydrobenzofuran-4-yl)methyl)amino)-8-(6-(piperazin-1-yl)pyridin-3-yl)imidazo[1,5-c]pyrimidine-1-carbonitrile] |
| 40.1 nM | 21.7 nM | 59.5 nM | OCCc1ccc(-c2cnc(NCc3c(F)ccc4c3CCO4)n3cncc23)cn1 [Example 34, 2-(5-(5-(((5-fluoro-2,3-dihydrobenzofuran-4-yl)methyl)amino)imidazo[1,5-c]pyrimidin-8-yl)pyridin-2-yl)ethan-1-ol] |
| 41.5 nM | 50.3 nM | 54.1 nM | CN1CCc2ccc(-c3cnc(NCc4c(F)ccc5c4CCO5)n4cncc34)cc2C1 [Example 26, N-((5-fluoro-2,3-dihydrobenzofuran-4-yl)methyl)-8-(2-methyl-1,2,3,4-tetrahydroisoquinolin-7-yl)imidazo[1,5-c]pyrimidin-5-amine] |
| 29.5 nM | 15.6 nM | 32.5 nM | Cc1ncn2c(NCc3c(F)ccc4c3CCO4)ncc(-c3ccc(S(C)(=O)=O)cc3)c12 [Example 4, N-((5-fluoro-2,3-dihydrobenzofuran-4-yl)methyl)-1-methyl-8-(4-(methylsulfonyl)phenyl)imidazo[1,5-c]pyrimidin-5-amine] |
| 20.8 nM | 9.4 nM | 47.7 nM | Cc1nc(S(C)(=O)=O)ccc1-c1cnc(NCc2c(F)ccc3c2CCO3)n2cncc12 [Example 38, N-((5-fluoro-2,3-dihydrobenzofuran-4-yl)methyl)-8-(2-methyl-6-(methylsulfonyl)pyridin-3-yl)imidazo[1,5-c]pyrimidin-5-amine] |
| 14.3 nM | 8.1 nM | 42.4 nM | Cc1ncncc1-c1cnc(NCc2c(F)ccc3c2CCO3)n2cncc12 [Example 47, N-((5-fluoro-2,3-dihydrobenzofuran-4-yl)methyl)-8-(4-methylpyrimidin-5-yl)imidazo[1,5-c]pyrimidin-5-amine] |
| 41.9 nM | 16.2 nM | 81.9 nM | O=C(c1ccc(-c2cnc(NCc3c(F)ccc4c3CCO4)n3cncc23)cc1)N1CCCC1 [Example 37, (4-(5-(((5-fluoro-2,3-dihydrobenzofuran-4-yl)methyl)amino)imidazo[1,5-c]pyrimidin-8-yl)phenyl)(pyrrolidin-1-yl)methanone] |
| 26 nM | 15.5 nM | 74.4 nM | Fc1cc(-c2cnc(NCc3c(F)ccc4c3CCO4)n3cncc23)ccn1 [Example 35, N-((5-fluoro-2,3-dihydrobenzofuran-4-yl)methyl)-8-(2-fluoropyridin-4-yl)imidazo[1,5-c]pyrimidin-5-amine] |
| 32.9 nM | 37.5 nM | 73.4 nM | CS(=O)(=O)Nc1ccc(-c2cnc(NCc3c(F)ccc4c3CCO4)n3cncc23)cc1 [Example 29, N-(4-(5-(((5-fluoro-2,3-dihydrobenzofuran-4-yl)methyl)amino)imidazo[1,5-c]pyrimidin-8-yl)phenyl)methanesulfonamide] |
| 13.6 nM | 7 nM | 13.1 nM | Cc1ncccc1-c1cnc(NCc2c(F)ccc3c2CCO3)n2cnc(C(=O)NN)c12 [Example 108, 5-(((5-fluoro-2,3-dihydrobenzofuran-4-yl)methyl)amino)-8-(2-methylpyridin-3-yl)imidazo[1,5-c]pyrimidine-1-carbohydrazide] |
| 16.7 nM | 5.3 nM | 6.6 nM | CS(=O)(=O)c1ccc(-c2cnc(NCc3c(F)ccc4c3CCO4)n3cnc(C#N)c23)cn1 [Example 79, 5-(((5-fluoro-2,3-dihydrobenzofuran-4-yl)methyl)amino)-8-(6-(methylsulfonyl)pyridin-3-yl)imidazo[1,5-c]pyrimidine-1-carbonitrile] |
| 5.7 nM | 4.9 nM | 5.1 nM | CCOC(=O)c1ncn2c(NCc3c(F)ccc4c3CCO4)ncc(-c3ccc(C)nc3C)c12 [Example 93, ethyl 8-(2,6-dimethylpyridin-3-yl)-5-(((5-fluoro-2,3-dihydrobenzofuran-4-yl)methyl)amino)imidazo[1,5-c]pyrimidine-1-carboxylate] |
| 6.8 nM | 5.4 nM | 48.9 nM | C#Cc1ncn2c(NCc3c(F)ccc4c3CCO4)ncc(-c3cccnc3C)c12 [Example 12, 1-Ethynyl-N-((5-fluoro-2,3-dihydrobenzofuran-4-yl)methyl)-8-(2-methylpyridin-3-yl)imidazo[1,5-c]pyrimidin-5-amine] |
| 19.5 nM | 8.6 nM | 64.5 nM | OCCNc1ncc(-c2cnc(NCc3c(F)ccc4c3CCO4)n3cncc23)cn1 [Example 44, 2-((5-(5-(((5-fluoro-2,3-dihydrobenzofuran-4-yl)methyl)amino)imidazo[1,5-c]pyrimidin-8-yl)pyrimidin-2-yl)amino)ethan-1-ol] |
| 20.3 nM | 10.8 nM | 22 nM | Cc1ccc(-c2cnc(NCc3c(F)ccc4c3CCO4)n3cnc(C#N)c23)cn1 [Example 72, 5-(((5-fluoro-2,3-dihydrobenzofuran-4-yl)methyl)amino)-8-(6-methylpyridin-3-yl)imidazo[1,5-c]pyrimidine-1-carbonitrile] |
| 12.6 nM | 4.4 nM | 8.1 nM | Cc1cc(C(=O)N(C)C)ncc1-c1cnc(NCc2c(F)ccc3c2CCO3)n2cncc12 [Example 54, 5-(5-(((5-fluoro-2,3-dihydrobenzofuran-4-yl)methyl)amino)imidazo[1,5-c]pyrimidin-8-yl)-N,N,4-trimethylpicolinamide] |
| 13.3 nM | 3.6 nM | 9.1 nM | Cc1ncc(-c2cnc(NCc3c(F)ccc4c3CCO4)n3cnc(S(C)(=O)=O)c23)c(C)n1 [Example 101, 8-(2,4-dimethylpyrimidin-5-yl)-N-((5-fluoro-2,3-dihydrobenzofuran-4-yl)methyl)-1-(methylsulfonyl)imidazo[1,5-c]pyrimidin-5-amine] |
| 13.5 nM | 7.9 nM | 20.4 nM | Cc1nn(CCO)c(C)c1-c1cnc(NCc2c(F)ccc3c2CCO3)n2cncc12 [Example 49, 2-(4-(5-(((5-fluoro-2,3-dihydrobenzofuran-4-yl)methyl)amino)imidazo[1,5-c]pyrimidin-8-yl)-3,5-dimethyl-1H-pyrazol-1-yl)ethan-1-ol] |
| 8.9 nM | 3.5 nM | 3.2 nM | Cc1cc(-c2cnc(NCc3c(F)ccc4c3CCO4)n3cnc(C#N)c23)n(C)n1 [Example 5, 8-(1,3-Dimethyl-1H-pyrazol-5-yl)-5-(((5-fluoro-2,3-dihydrobenzofuran-4-yl)methyl)amino)imidazo[1,5-c]pyrimidine-1-carbonitrile] |

From patent US10676479B2, “Imidazolepyridine compounds and uses thereof” (Novartis AG, priority 2016, dated 2020)
